According to patent publication US20110262508A1, “ANTIMICROBIAL COMPOSITIONS, FORMULATIONS AND USES THEREOF” (priority 2007, published 2011):
≈ marks a conversion by molar mass, not a printed value. Read-outs that look alike come from different tables or passages of the source. Each block holds one compound with its values, some of them ahead of it. Peptide text beside a SMILES is read from it. * marks the point of attachment. Biotin = O=C1N[C@H]2[C@H](CS[C@H]2CCCCC(=O)*)N1

Legend:
[1] = test system: A. baumannii ATCC 19606, Acinetobacter spp. ATCC 17903, Acinetobacter spp. ATCC 19004, E. coli BL21, S. aureus, S. typhimurium AroA, P. aeruginosa, P. …; test: Antibacterial spectrum over the serial dilution panel (Table 6); assay type: cell-based; details: summary of Table 6
Procedure, shortened: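 Peptides at about 5–10 μM were added to liquid media freshly inoculated with each bacterial strain and shaken 5-6 h at 37° C. Growth read as absorbance at 595 nm; control cultures contained 0.1% acetonitrile.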

[2] = test system: S. typhimurium strain AroA; assay type: cell-based
Method: Synthetic peptides were tested for their ability to inhibit bacterial growth in liquid culture. […] 19606, Acinetobacter spp. ATCC 17903, Acinetobacter spp. ATCC 19004, Escherichia coli strain BL21, S. aureus, S. typhimurium strain AroA, P. aeruginosa or P. pneumotropica. After 5-6 hours of shaking at 37° C., growth was measured as absorbance at 595 nm. As a control, cultures were grown in the presence of 0.1% acetonitrile (i.e., the concentration present in 10 μM peptide).

human RBC = test: Hemolysis of RBC; assay type: cell-based
Method: Varying amounts of peptide were incubated with the washed RBC for one hour at room temperature. Intact cells were pelleted by gentle centrifugation, and hemolysis of each sample was determined by absorption measurement at 450 nm. A positive control sample consisted of RBC lysed by the addition of 0.1% Triton, for which hemolysis was also determined by absorption measurement at 450 nm. Percentages of lysed RBC incubated with peptide were then calculated by the ratio of absorbances at 450 nm for the sample relative to the absorbance at 450 nm of the positive control sample. The MHC10 value was calculated as the minimum peptide concentration to induce 10% cell lysis.

A. baumannii = assay type: cell-based
Procedure, shortened: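 Laboratory strains and 50 clinical isolates of A. baumannii were tested by CLSI broth microdilution, with serially diluted peptide (0.1-64 μg) and about 1×10^5 C.F.U. per well, incubated aerobically overnight at 35±2° C. MIC was read visually. MBC came from subculturing clear wells, as ≥99.9% inoculum reduction.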

[3] = Cytotoxicity against Jurkat cells (CellTiter Blue); assay type: cell-based, human; details: human
Method: (§1) The cytotoxicities of selected peptides against human T-lymphocytes, in particular Jurkat cells, was determined by growing 100 uL Jurkat cells in RPMI (approx. 5×10^5 cells/ml density) overnight at 37° C. under 5% CO2 atmosphere, in microtiter plate wells, in the presence and absence of peptides. Control reactions either lacked peptide (negative cytotoxicity control), or contained a buffer to completely lyse Jurkat cells (positive cytotoxicity control). The viabilities of cells were then determined by addition of 20 uL CellTiter Blue dye (Promega) to each well, and incubation of cells for a further 3 hrs at 37° C. Fluorescence values were measured for 1 sec at 540 nm/615 nm, and expressed relative to fluorescence values for negative and positive cytotoxicity control samples. Comparison with a fully lysed control allowed the calculation of a percentage killing for each peptide concentration. The MCC10 value was calculated as the minimum peptide concentration required to induce 10% cytotoxicity.

Jurkat cells = test: Cytotoxicity against Jurkat cells (CellTiter Blue); assay type: cell-based, human
Method: as §1

Compound: CC(C)C[C@H](NC(=O)[C@@H](NC(=O)[C@H](CCC(=O)O)NC(=O)[C@@H](NC(=O)[C@H](CCCNC(=N)N)NC(=O)CNC(=O)[C@@H](N)CCC(N)=O)C(C)C)C(C)C)C(=O)N[C@@H](Cc1ccc(O)cc1)C(=O)N[C@@H](CCCNC(=N)N)C(=O)NCC(=O)N[C@@H](CO)C(=O)N[C@@H](Cc1c[nH]c2ccccc12)C(=O)NCC(=O)N[C@H](C(=O)N[C@H](C(=O)N[C@@H](CS)C(=O)O)C(C)C)[C@@H](C)O [Ac175, reference compound] (H-QGRVEVLYRGSWGTVC-OH; N-terminus and C-terminus assumed)
selectively inhibited growth of S. aureus [1]: selectively inhibited growth
% inhibition of bacterial growth by peptide ([2]; 5 μM peptide): 3%
% inhibition of bacterial growth by peptide ([2]; 10 μM peptide): 0%
% inhibition of bacterial growth by peptide ([2]; 15 μM peptide): 0%
% inhibition of bacterial growth by peptide ([2]; 20 μM peptide): 4%

Compound: CC(C)C[C@H](NC(=O)[C@H](Cc1ccccc1)NC(=O)CNC(=O)[C@H](CO)NC(=O)[C@@H]1CCCN1C(=O)[C@H](Cc1c[nH]c2ccccc12)NC(=O)[C@@H](NC(=O)[C@@H]1CCCN1C(=O)[C@H](CCCNC(=N)N)NC(=O)[C@@H](NC(=O)[C@H](C)NC(=O)[C@H](CS)NC(=O)[C@H](CCCNC(=N)N)NC(=O)[C@H](CO)NC(=O)[C@H](CO)NC(=O)[C@H](C)NC(=O)[C@H](C)NC(=O)[C@H](CCCNC(=N)N)NC(=O)[C@H](CO)NC(=O)[C@H](CO)NC(=O)[C@H](Cc1c[nH]cn1)NC(=O)[C@@H]1CCCN1C(=O)CCCC[C@@H]1SC[C@@H]2NC(=O)N[C@@H]21)C(C)C)C(C)C)C(=O)N[C@@H](CCCNC(=N)N)C(=O)O [Ac327] (Biotin-PHSSRAASSRCAVRPVWPSGFLR-OH)
MHC10 (human RBC): 30 µM
MIC (μM) for non-amidated Peptide (A. baumannii): 20 µM
cytotoxicity at 12.5 μM [3]: 20%
cytotoxicity at 25 μM [3]: 31%
cytotoxicity at 50 μM [3]: 1%
MCC10 (Jurkat cells): 8 µM

Compound: CC(C)C[C@H](NC(=O)[C@H](Cc1ccccc1)NC(=O)CNC(=O)[C@H](CO)NC(=O)[C@@H]1CCCN1C(=O)[C@H](Cc1c[nH]c2ccccc12)NC(=O)[C@@H](NC(=O)[C@@H]1CCCN1C(=O)[C@H](CCCNC(=N)N)NC(=O)[C@@H](NC(=O)[C@H](C)NC(=O)[C@H](CS)NC(=O)[C@H](CCCNC(=N)N)NC(=O)[C@H](CO)NC(=O)[C@H](CO)NC(=O)CCCC[C@@H]1SC[C@@H]2NC(=O)N[C@@H]21)C(C)C)C(C)C)C(=O)N[C@@H](CCCNC(=N)N)C(=O)N[C@@H](CCCNC(=N)N)C(=O)N[C@@H](CC(C)C)C(=O)N[C@@H](CO)C(=O)N[C@@H](CC(=O)O)C(=O)N[C@@H](CCCNC(=N)N)C(=O)N[C@@H](CS)C(=O)N[C@@H](CS)C(=O)O [Ac328] (Biotin-SSRCAVRPVWPSGFLRRLSDRCC-OH; N-terminus and C-terminus assumed)
MHC10 (human RBC): 20 µM
MIC (μM) for non-amidated Peptide (A. baumannii): 12.5 µM
cytotoxicity at 12.5 μM [3]: 1%
cytotoxicity at 25 μM [3]: 17%
cytotoxicity at 50 μM [3]: 32%
MCC10 (Jurkat cells): 20 µM

The next lines start with results.

MIC (A. baumannii): 25 µM (≈ 82.4 µg/mL)
MIC (μM) for non-amidated Peptide (A. baumannii): 20 to 25 µM
Compound: CC[C@H](C)[C@H](NC(=O)[C@H](C)NC(=O)[C@H](CC(N)=O)NC(=O)[C@H](CS)NC(=O)[C@H](CS)NC(=O)CCCC[C@@H]1SC[C@@H]2NC(=O)N[C@@H]21)C(=O)N[C@H](C(=O)N[C@@H](Cc1ccc(O)cc1)C(=O)N[C@@H](CCCCN)C(=O)N[C@@H](Cc1c[nH]c2ccccc12)C(=O)N[C@H](C(=O)N[C@@H](CC(C)C)C(=O)N[C@@H](Cc1c[nH]cn1)C(=O)N[C@@H](Cc1ccccc1)C(=O)N[C@@H](Cc1ccccc1)C(=O)N[C@@H](Cc1c[nH]c2ccccc12)C(=O)N[C@@H](CCCNC(=N)N)C(=O)N[C@@H](CCCCN)C(=O)N[C@@H](CCCNC(=N)N)C(=O)N[C@@H](C)C(=O)N[C@@H](Cc1c[nH]c2ccccc12)C(=O)N[C@@H](Cc1ccc(O)cc1)C(=O)N[C@@H](CS)C(=O)N[C@@H](Cc1ccccc1)C(=O)O)[C@@H](C)CC)[C@@H](C)CC [Ac228] (Biotin-CCNAIIYKWILHFFWRKRAWYCF-OH; N-terminus and C-terminus assumed)
MHC10 (human RBC): ~10 µM
haemolytic activity (in words) (human RBC): reproducibly higher haemolytic activities
Percent hemolysis at 5 μM peptide (human RBC; red cells of human, 5): 2.6%
Percent hemolysis at 10 μM peptide (human RBC; red cells of human, 10): 11.0%
Percent hemolysis at 20 μM peptide (human RBC; red cells of human, 20): 9.9%
Percent hemolysis at 40 μM peptide (human RBC; red cells of human, 40): 22.9%
Percent hemolysis at 60 μM peptide (human RBC; red cells of human, 60): 40.1%
Percent hemolysis at 80 μM peptide (human RBC; red cells of human, 80): 80.4%
Percent hemolysis at 100 μM peptide (human RBC; red cells of human, 1 h, 100): 97.1%
bactericidal or bacteriostatic against A. baumannii (A. baumannii): bacteriostatic
MBC (μM) (A. baumannii; A. baumannii (Table 8), reduces original inoculum by at least about 99.9%): bacteriostat
cytotoxicity at 12.5 μM [3]: 0%
cytotoxicity at 25 μM [3]: 5%
cytotoxicity at 50 μM [3]: 29%
MCC10 (Jurkat cells): 42 µM

MIC (μM) for non-amidated Peptide (A. baumannii): 5 µM
Compound: CC[C@H](C)[C@H](NC(=O)[C@@H]1CCCN1C(=O)CCCC[C@@H]1SC[C@@H]2NC(=O)N[C@@H]21)C(=O)N1CCC[C@H]1C(=O)N[C@@H](Cc1ccccc1)C(=O)N[C@@H](Cc1ccccc1)C(=O)N[C@@H](CC(N)=O)C(=O)N[C@@H](CCCNC(=N)N)C(=O)N[C@H](C(=O)NCC(=O)N[C@@H](Cc1ccccc1)C(=O)N[C@@H](Cc1ccccc1)C(=O)N[C@@H](CS)C(=O)N[C@@H](CC(C)C)C(=O)N1CCC[C@H]1C(=O)N[C@@H](CCCCN)C(=O)N[C@@H](CC(N)=O)C(=O)N[C@@H](CC(C)C)C(=O)N[C@@H](CCCCN)C(=O)N[C@@H](CCCNC(=N)N)C(=O)N[C@@H](CO)C(=O)N[C@@H](CCCCN)C(=O)N[C@@H](Cc1ccccc1)C(=O)N[C@@H](CS)C(=O)O)[C@@H](C)O [Ac322] (Biotin-PIPFFNRTGFFCLPKNLKRSKFC-OH; N-terminus and C-terminus assumed)
MHC10 (human RBC): 25 µM
cytotoxicity at 12.5 μM [3]: 0%
cytotoxicity at 25 μM [3]: 0%
cytotoxicity at 50 μM [3]: 59%
MCC10 (Jurkat cells): 30 µM

MIC (μM) for non-amidated Peptide (A. baumannii): 20 µM
Compound: CC(C)C[C@H](NC(=O)[C@H](CC(N)=O)NC(=O)[C@H](CCCCN)NC(=O)[C@@H]1CCCN1C(=O)[C@H](CC(C)C)NC(=O)[C@H](CS)NC(=O)[C@H](Cc1ccccc1)NC(=O)[C@H](Cc1ccccc1)NC(=O)CNC(=O)[C@@H](NC(=O)[C@H](CCCNC(=N)N)NC(=O)CCCC[C@@H]1SC[C@@H]2NC(=O)N[C@@H]21)[C@@H](C)O)C(=O)N[C@@H](CCCCN)C(=O)N[C@@H](CCCNC(=N)N)C(=O)N[C@@H](CO)C(=O)N[C@@H](CCCCN)C(=O)N[C@@H](Cc1ccccc1)C(=O)N[C@@H](CS)C(=O)N[C@@H](C)C(=O)N[C@@H](Cc1ccccc1)C(=O)N[C@@H](CC(C)C)C(=O)N[C@@H](CC(=O)O)C(=O)N1CCC[C@H]1C(=O)N[C@H](C(=O)O)[C@@H](C)O [Ac323] (Biotin-RTGFFCLPKNLKRSKFCAFLDPT-OH; N-terminus and C-terminus assumed)
MHC10 (human RBC): 30 µM
cytotoxicity at 12.5 μM [3]: 9%
cytotoxicity at 25 μM [3]: 31%
cytotoxicity at 50 μM [3]: 49%
MCC10 (Jurkat cells): 13 µM

MIC (μM) for non-amidated Peptide (A. baumannii): 12.5 µM
Compound: CC(C)C[C@H](NC(=O)[C@H](CC(=O)O)NC(=O)[C@H](CO)NC(=O)CCCC[C@@H]1SC[C@@H]2NC(=O)N[C@@H]21)C(=O)NCC(=O)N[C@@H](CCCCN)C(=O)N[C@@H](CO)C(=O)NCC(=O)N[C@@H](C)C(=O)NCC(=O)N[C@@H](Cc1c[nH]c2ccccc12)C(=O)N[C@@H](CCCNC(=N)N)C(=O)N[C@@H](Cc1c[nH]c2ccccc12)C(=O)N[C@@H](CCCNC(=N)N)C(=O)N[C@@H](C)C(=O)N[C@@H](CS)C(=O)N[C@@H](CC(N)=O)C(=O)N[C@H](C(=O)N[C@@H](CC(C)C)C(=O)N[C@@H](CO)C(=O)N[C@@H](CCCCN)C(=O)N[C@@H](CS)C(=O)N[C@@H](CCCNC(=N)N)C(=O)NCC(=O)O)[C@@H](C)O [Ac378] (Biotin-SDLGKSGAGWRWRACNTLSKCRG-OH; N-terminus and C-terminus assumed)
MHC10 (human RBC): 50 µM
cytotoxicity at 12.5 μM [3]: 0%
cytotoxicity at 25 μM [3]: 0%
cytotoxicity at 50 μM [3]: 35%
MCC10 (Jurkat cells): 30 µM
